The results in this text go back to ChEMBL document CHEMBL3797065, “Kaurane and abietane diterpenoids from the roots of Tripterygium wilfordii and their cytotoxic evaluation” (Bioorg Med Chem Lett, 2016).

The test system of experiment [1] is MCF7. Description: Cytotoxicity against human MCF7 cells after 48 hrs by MTT assay. The format is functional, cell-based. The settings on record: MCF7, 48 h.
Experiment [2] concerns HepG2. The experiment in a line: Cytotoxicity against human HepG2 cells after 48 hrs by MTT assay. The settings on record: HepG2, 48 h. The experiment is classed as functional, cell-based. In general terms: Tetrazolium assays rely on reduction of a dye to a coloured formazan, in cell work by metabolically active cells.
Experiment [3] relates to Bcap37. Description: Cytotoxicity against human Bcap37 cells after 48 hrs by MTT assay. The format is functional, cell-based. The settings on record: Bcap37, 48 h.
For experiment [4], the system named is A549. Description: Cytotoxicity against human A549 cells after 48 hrs by MTT assay. The experiment is classed as functional, cell-based. The settings on record: A549, 48 h.
The subject of experiment [5] is U-251. Description: Cytotoxicity against human U251 cells after 48 hrs by MTT assay. The format is functional, cell-based. The settings on record: U-251, 48 h.
A short description of experiment [6]: Cytotoxicity against human Hep3B cells after 48 hrs by MTT assay. The format is functional, cell-based, Hep 3B2.

Broadly, the IC50 is the midpoint of a concentration-inhibition curve.

Regarding `C[C@@]12CCC[C@]3(C(=O)OC1)[C@@H]2CC[C@@]12C[C@H](CC[C@H]13)[C@](C)(O)C2`, the IC50 in experiment [1] is greater than 100 µM; in experiment [2], 97.1 µM; in experiment [3], greater than 100 µM; in experiment [4], greater than 100 µM; in experiment [5], greater than 100 µM; in experiment [6], greater than 100 µM.
As for `CC(C)C1=CC(=O)C2=C(CC[C@H]3[C@@](C)(CO)[C@@H](O)CC[C@]23C)C1=O`, the IC50 in experiment [1] is 11.4 µM; in experiment [2], greater than 100 µM; in experiment [3] it was greater than 100 µM; in experiment [4] it was 11.5 µM; in experiment [5], 43.6 µM; in experiment [6], 17.4 µM.
As to `CO[C@@H]1OC[C@@]2(C)CCC[C@]13[C@@H]1CC[C@H]4C[C@@]1(CC[C@@H]23)C[C@@]4(C)O`, the IC50 in experiment [1], in experiment [2], in experiment [3], in experiment [4], in experiment [5] and in experiment [6] was greater than 100 µM each time.
Take `CC(C)c1ccc2c(c1)C(=O)C[C@H]1[C@@](C)(CO)C(=O)CC[C@]21C` [TRIPTOBENZENE N]: the IC50 in experiment [1] is greater than 100 µM; in experiment [2], 43.7 µM; in experiment [3] it was greater than 100 µM; in experiment [4] it was 32.8 µM; in experiment [5], greater than 100 µM; in experiment [6] it was greater than 100 µM.
`C[C@@]1(O)C[C@@]23CC[C@H]4[C@@]5(CCC[C@]4(C)C(=O)OC5)[C@@H]2CC[C@H]1C3` [TRIPTERIFORDIN]: the IC50 in experiment [1], in experiment [2], in experiment [3], in experiment [4], in experiment [5] and in experiment [6] was greater than 100 µM in each case.
In the case of `CC(C)c1ccc2c(c1)CC[C@H]1[C@@](C)(CO)C(=O)CC[C@]21C`, the IC50 in experiment [1] was greater than 100 µM; in experiment [2] it was 32.7 µM; in experiment [3], greater than 100 µM; in experiment [4], 39 µM; in experiment [5], greater than 100 µM; in experiment [6], greater than 100 µM.
With `CC(C)c1ccc2c(c1O)CC[C@H]1C(C)(C)[C@@H](O)CC[C@]21C`, the IC50 in experiment [1] is greater than 100 µM; in experiment [2], 46.3 µM; in experiment [3] it was greater than 100 µM; in experiment [4] it was greater than 100 µM; in experiment [5] it was greater than 100 µM; in experiment [6], greater than 100 µM.
`CO[C@@H]1OC[C@@]23CCC[C@@]1(C)[C@@H]2CC[C@@]12C[C@@H](CC[C@H]13)[C@](C)(O)C2` (relative stereo): the IC50 in experiment [1] is greater than 100 µM; in experiment [2], 28.5 µM; in experiment [3], 11.6 µM; in experiment [4], 39.3 µM; in experiment [5], 13.5 µM; in experiment [6], 48.9 µM.
`COc1cc2c(c(O)c1C(C)C)CC[C@H]1C(C)=C(C(=O)O)CC[C@]21C`: the IC50 in experiment [1] was greater than 100 µM; in experiment [2] it was 42.5 µM; in experiment [3], 37.6 µM; in experiment [4] it was greater than 100 µM; in experiment [5] it was greater than 100 µM; in experiment [6], 29.7 µM.
`COc1c(C(C)C)cc(O)c2c1CC[C@H]1C(C)(C)C(=O)CC[C@]21C`: the IC50 was greater than 100 µM in experiment [1]; 47.8 µM in experiment [2]; greater than 100 µM in experiment [3]; greater than 100 µM in experiment [4]; 29.3 µM in experiment [5]; 39.8 µM in experiment [6].
With `C=C1C(OC(C)=O)[C@]23[C@H](O)[C@H]1CC[C@H]2[C@]12CCCC(C)(C)[C@H]1[C@H](OC(C)=O)[C@@]3(O)OC2` (stereo not given in full), the IC50 in experiment [1] is 37.4 µM; in experiment [2], 38.4 µM; in experiment [3], greater than 100 µM; in experiment [4], 21.9 µM; in experiment [5] it was greater than 100 µM; in experiment [6], 48.3 µM.
For the compound `CC1=C(C(=O)O)CC[C@]2(C)C3=C(CC[C@@H]12)C(=O)C(C(C)C)=CC3=O`, the IC50 in experiment [1], in experiment [2], in experiment [3], in experiment [4], in experiment [5] and in experiment [6] was greater than 100 µM each time.
Take `COc1c(C(C)C)cc(O)c2c1CC[C@H]1[C@@](C)(CO)C(=O)CC[C@]21C`: the IC50 is 23.2 µM in experiment [1]; 21.9 µM in experiment [2]; greater than 100 µM in experiment [3]; 21.6 µM in experiment [4]; greater than 100 µM in experiment [5]; 28.7 µM in experiment [6].
Regarding `CC(C)C1=CC(=O)C2=C(CC[C@H]3[C@@](C)(CO)C(=O)CC[C@]23C)C1=O`, the IC50 is 16.7 µM in experiment [1]; 26.3 µM in experiment [2]; 13.3 µM in experiment [3]; 19.9 µM in experiment [4]; greater than 100 µM in experiment [5]; 26 µM in experiment [6].
For the compound `CC(C)C1=C[C@@]2(O)OO[C@@H]3CC(=O)[C@](C)(CO)[C@@H]4CCC(=C2[C@]43C)C1=O`, the half-maximal inhibitory concentration (IC50) in experiment [1] was greater than 100 µM; in experiment [2], greater than 100 µM; in experiment [3], greater than 100 µM; in experiment [4], 10.7 µM; in experiment [5], 24.9 µM; in experiment [6] it was 17.7 µM.
As to `C[C@@]1(O)C[C@@]23CC[C@H]4[C@@]5(CCC[C@]4(C)C(=O)OC5)[C@]2(O)CC[C@H]1C3`, the IC50 in experiment [1], in experiment [2], in experiment [3], in experiment [4], in experiment [5] and in experiment [6] was greater than 100 µM throughout.
For the compound `O=c1[nH]cc(F)c(=O)[nH]1` [FLUOROURACIL], the IC50 in experiment [3] was 15.5 µM; in experiment [4], 21.6 µM; in experiment [5] it was 24.7 µM; in experiment [6] it was 17.5 µM.
Consider `CC(C)c1ccc2c(c1O)CC[C@H]1C3=C(CC[C@]21C)C(=O)OC3` [TRIPTOPHENOLIDE], for which the IC50 in experiment [1] was greater than 100 µM; in experiment [2] it was 17 µM; in experiment [3], 22.4 µM; in experiment [4], 42.9 µM; in experiment [5], greater than 100 µM; in experiment [6], 22.2 µM.
Turning to `COc1c(C(C)C)cc(O)c2c1CCC1=C(C)C(=O)CC[C@@]12C`, the IC50 came out at 5.73 µM in experiment [1]; 5.1 µM in experiment [2]; 7.93 µM in experiment [3]; 17.4 µM in experiment [4]; 8.62 µM in experiment [5]; 18.2 µM in experiment [6].
For `C[C@]12C3=C4CC=C[C@@]3(O)OO[C@@H]1CC1=C(COC1=O)[C@@H]2CC4`, the IC50 in experiment [1] is 23.3 µM; in experiment [2], 10.9 µM; in experiment [3], 8.11 µM; in experiment [4], 11.3 µM; in experiment [5] it was 20.2 µM; in experiment [6] it was 18 µM.
For `CC(C)c1ccc2c(c1O)CC[C@H]1[C@@](C)(CO)[C@@H](O)CC[C@]21C`, the IC50 in experiment [1] is 23.8 µM; in experiment [2] it was 36.3 µM; in experiment [3] it was greater than 100 µM; in experiment [4] it was 30.1 µM; in experiment [5] it was greater than 100 µM; in experiment [6], 48.7 µM.
`COc1c(C(C)C)cc(O)c2c1CC[C@H]1C(C)=C(C(=O)O)CC[C@]21C`: the IC50 in experiment [1], in experiment [2], in experiment [3], in experiment [4], in experiment [5] and in experiment [6] was greater than 100 µM throughout.
